# Measured values as given in PMC2810868 (Nature, 2009).
# Legend:
# PYL2 = target: T1, PYL2 (Arabidopsis thaliana, UniProt O80992); assay: crystal structure of PYL2-ABA; type: biochemical
# T1 sequence (O80992 14-188): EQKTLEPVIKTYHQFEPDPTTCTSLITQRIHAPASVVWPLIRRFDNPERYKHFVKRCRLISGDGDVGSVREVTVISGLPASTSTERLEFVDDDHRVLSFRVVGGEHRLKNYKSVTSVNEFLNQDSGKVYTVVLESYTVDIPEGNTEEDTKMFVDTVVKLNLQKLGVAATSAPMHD
# T1 sequence (Q9CAJ0 172-511 partner): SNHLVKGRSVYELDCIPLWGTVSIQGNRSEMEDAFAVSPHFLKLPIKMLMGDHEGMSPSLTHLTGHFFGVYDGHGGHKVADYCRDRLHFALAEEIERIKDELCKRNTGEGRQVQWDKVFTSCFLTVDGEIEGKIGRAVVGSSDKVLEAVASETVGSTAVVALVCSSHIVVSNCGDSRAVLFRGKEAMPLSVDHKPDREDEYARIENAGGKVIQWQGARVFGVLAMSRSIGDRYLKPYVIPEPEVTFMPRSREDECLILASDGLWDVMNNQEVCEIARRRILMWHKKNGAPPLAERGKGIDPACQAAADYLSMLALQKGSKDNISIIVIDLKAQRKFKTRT
# PYR1(H115A) = target: T2, PYR1(H115A) (Arabidopsis thaliana, UniProt O49686, H115A); assay: 1H-15N HSQC NMR with and without S-ABA; type: binding
# T2 sequence (O49686 1-191 H115A): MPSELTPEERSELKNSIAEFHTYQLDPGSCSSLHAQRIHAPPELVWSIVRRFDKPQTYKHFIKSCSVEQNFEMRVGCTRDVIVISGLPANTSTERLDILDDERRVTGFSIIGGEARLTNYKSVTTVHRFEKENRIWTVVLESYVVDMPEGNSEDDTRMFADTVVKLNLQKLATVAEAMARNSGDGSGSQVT
smiles,measurement,setting,value
CC1=CC(=O)CC(C)(C)C1(O)/C=C/C(C)=C\C(=O)O (centres unmarked) [S-ABA],IC50,PYL2,150 nM
same,1H-15N HSQC NMR with and without S-ABA,PYR1(H115A),ABA binding is unaltered by the H115A mutation in the PYR1 latch.
